37 molecules from publication PMC9250534, “Synthesis and direct assay of large macrocycle diversities by combinatorial late-stage modification at picomole scale” (Nature Communications, 2022) can be followed below.

Numbered stars: 1 amine (or outer) side, 2 acyl side, 3 side chain; on linkers, the order of the positions; unused ones are H or OH. Bridge positions count the residues as written; N and C are the ends. Square brackets hold non-standard residues; d marks the D form. Peptide text beside a SMILES is read from it. * marks the point of attachment. ξ: configuration not given here. Pro(4S-NHCO(5-Cl-2-thienyl)) = O=C(N[C@@H]1CN[C@H](C(=O)O)C1)c1ccc(Cl)s1; ξPro(4-NHCO(5-Cl-2-thienyl)) = O=C(NC1CNC(C(=O)O)C1)c1ccc(Cl)s1; 1,2,3Thiadiazole5CO(4-Me) = Cc1nnsc1C(=O)*; 2Thenoyl(5-Cl) = O=C(c1ccc(Cl)s1)*; Cysteamide = C(CS[*:3])N[*:1]; 3Amb = NCc1cccc(C(=O)O)c1; Isovaleryl = CC(C)CC(=O)*; 2Furoyl = O=C(c1ccco1)*; Mpa = O=C(O)CCS

Assay [1] addresses MDM2 (Homo sapiens, UniProt Q00987). Description: MDM2 binding screen of Libraries 3 and 4: displacement of fluorescent probe F-M8 at 750 nM macrocycle. The note with it: Panel b, Library 3: 63 scaffolds combinatorially acylated with 15 carboxylic acids at 30 picomole scale; displacement of fluorescent peptide probe; macrocycle 750 nM. The protocol:
The cyclic peptide scaffolds required for Libraries 3 and 4 were synthesized as described for those used in Library 2. Due to the presence of many N-methylated amino acids which are more difficult to couple, 200 mM HOAt was applied together with HATU. The scaffolds were diluted to 2 mM in DMSO, and 15 nL were transferred using acoustic dispensing, followed by 15 nL DMSO containing carboxylic acids (40 mM, 20 equiv.), HBTU (40 mM) and DABCO (40 mM). After 6 h reaction at room temperature, 370 nL of DMSO was added to each well, followed by 5 μL of 100 mM Tris-Cl pH 7.4 containing 0.01% v/v Tween20, for quenching overnight.

Assay [2] addresses T1, thrombin (Homo sapiens, UniProt P00734).
T1 construct: consists of two polypeptide chains of 36 (light chain) and 259 amino acid
Description: Thrombin inhibition screen of crude macrocycle reactions (residual thrombin activity, fluorogenic substrate Z-Gly-Gly-Arg-AMC). The assay is classed as biochemical. Conditions: 10 µM macrocycle concentration; for percent residual thrombin activity: crude reactions, Library 1a-l, scaffold AA1-AA2-AA3 combined with 1-16 or '-'; for % thrombin activity, Original screen / % thrombin activity, Repeat screen: macrocycles containing acid 14, crude reaction; for % thrombin activity, Repeat screen: replicate reaction and screen. A digest of the protocol: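 Each crude macrocycle (10 μM) was preincubated 10 min at room temperature with thrombin (2 nM final) in Tris-Cl pH 7.4 containing NaCl, MgCl2, CaCl2, 0.1% BSA, 0.01% Triton X-100 and 0.6% DMSO. Z-Gly-Gly-Arg-AMC (50 μM final) was then added. Inhibition came from fluorescence slopes relative to DMSO-only controls.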

Chain of MDM2 (Q00987 whole entry): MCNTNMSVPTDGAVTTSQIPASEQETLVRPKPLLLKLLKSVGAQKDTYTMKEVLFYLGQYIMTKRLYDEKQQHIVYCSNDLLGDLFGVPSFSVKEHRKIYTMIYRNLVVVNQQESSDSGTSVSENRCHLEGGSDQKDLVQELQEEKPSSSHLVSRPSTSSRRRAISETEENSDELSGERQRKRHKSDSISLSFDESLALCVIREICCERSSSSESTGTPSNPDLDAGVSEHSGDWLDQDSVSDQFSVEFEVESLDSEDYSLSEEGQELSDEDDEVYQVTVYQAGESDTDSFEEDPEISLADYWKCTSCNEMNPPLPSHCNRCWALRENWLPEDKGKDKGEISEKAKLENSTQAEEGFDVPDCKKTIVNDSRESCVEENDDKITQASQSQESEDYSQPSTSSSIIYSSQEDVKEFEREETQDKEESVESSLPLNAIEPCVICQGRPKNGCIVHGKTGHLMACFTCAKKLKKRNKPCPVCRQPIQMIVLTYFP

As for `CC(Oc1cccc(Cl)c1)C(=O)NCCN1CC(=O)N[C@H](Cc2c[nH]c3ccccc23)C(=O)NCCSSCCC(=O)NCC2(CC2)C1=O` (stereo partly drawn) [X-Amcp-N-Aeg-D-Trp + Acid 113], the “fraction of fluorescent probe displaced” value in assay [1] was 0.00133.
For the molecule `CC1NC(=O)CCSSCCNC(=O)C2CCCN2C(=O)C(CCCCNC(=O)c2ccco2)NC1=O` (stereo not shown) [a-D1-B1/16] ([Mpa]AK(2Furoyl)P-Cysteamide; disulfide 1-C; configuration not given here), the “percent residual thrombin activity” value in assay [2] is listed as 113.28%.
On to `O=C1CCSSCCNC(=O)c2ccc(cc2)CNC(=O)[C@H](Cc2c[nH]c3ccccc23)NC(=O)[C@H](CCCNC(=O)c2c[nH]c(=O)[nH]c2=O)N1` [D2-W-B3/11], for which the “percent residual thrombin activity” value in assay [2] is on record as 121.031%.
On to `O=C1CCSSCCNC(=O)[C@H](Cc2c[nH]c3ccccc23)NC(=O)[C@H](CCCCNC(=O)c2ccc(Cl)s2)NC(=O)c2cccc(c2)CN1` [B5-D1-W/14], for which the “percent residual thrombin activity” value in assay [2] amounted to 107.115%.
`CC[C@H](C)[C@@H]1NC(=O)[C@H](CCCNC(=O)c2cnccn2)NC(=O)c2cccc(c2)CNC(=O)CCSSCCNC1=O` [B5-D2-I/2]: the “percent residual thrombin activity” value in assay [2] worked out at 109.077%.
`CC(C)[C@H]1NC(=O)[C@H](CCCCNC(=O)c2ccc(Cl)s2)NC(=O)[C@@H]2CCCN2C(=O)CCSSCCNC1=O` [X B1 D1 v] ([Mpa]PK(2Thenoyl(5-Cl))[dV]-Cysteamide; disulfide 1-C): in assay [2], the “% thrombin activity, Original screen” value was found to be 108.1% and the “% thrombin activity, Repeat screen” value is 109.9%.
For `CC(C)C[C@@H]1NC(=O)CCSSCCNC(=O)[C@H](CCCNC(=O)c2ccc(Cl)s2)NC(=O)[C@H]2CCCN(C2)C1=O` [L-B4-D2/14], the “percent residual thrombin activity” value in assay [2] was 97.6394%.
For `Cc1nnsc1C(=O)NCCCC[C@@H]1NC(=O)[C@H](C(C)C)NC(=O)CCSSCCNC(=O)[C@@H]2CCCN2C1=O` [v-D1-B1/15] ([Mpa]VK(1,2,3Thiadiazole5CO(4-Me))P-Cysteamide; disulfide 1-C), the “percent residual thrombin activity” value in assay [2] came out at 105.611%.
With `O=C1CCSSCCNC(=O)[C@H](CNC(=O)c2ccc(Cl)s2)NC(=O)[C@@H](Cc2ccc(O)cc2)NC(=O)c2ccc(cc2)CN1` [X B3 y D3], in assay [2], the “% thrombin activity, Original screen” value was 88.0% and the “% thrombin activity, Repeat screen” value was 89.2%.
Take `CC(C)CC(=O)NCCCC[C@@H]1NC(=O)[C@@H](C)NC(=O)CCSSCCNC(=O)c2cccc(c2)CNC1=O` [a-D1-B5/8] ([Mpa][dA]K(Isovaleryl)[3Amb]-Cysteamide; disulfide 1-C): in assay [2], the “percent residual thrombin activity” value is 99.075%.
For the molecule `COc1ccc(C(=O)NCCCC[C@@H]2NC(=O)c3cccc(c3)CNC(=O)[C@H](Cc3cnc[nH]3)NC(=O)CCSSCCNC2=O)cn1` [H-B5-D1/10], the “percent residual thrombin activity” value in assay [2] is reported as 98.3606%.
Take `O=C1CCNC(=O)[C@H](CO)NC(=O)[C@H](CCCNC(=O)Cc2c[nH]c3ccccc23)NC(=O)CCSSCCN1` [D2-S-B2/12]: the “percent residual thrombin activity” value in assay [2] was determined as 110.146%.
On to `NC(=O)CC[C@@H]1NC(=O)[C@@H]2C[C@H](NC(=O)c3ccc(Cl)s3)CN2C(=O)[C@@H]2CCCN2C(=O)CCSSCCNC1=O` [X B1 D5 Q] ([Mpa]P[Pro(4S-NHCO(5-Cl-2-thienyl))]Q-Cysteamide; disulfide 1-C), for which, in assay [2], the “% thrombin activity, Original screen” value was 96.1% and the “% thrombin activity, Repeat screen” value was found to be 98.4%.
In the case of `C[C@H]1NC(=O)[C@@H]2CCCN2C(=O)[C@H](CCCCNC(=O)c2ccc(Cl)s2)NC(=O)CCSSCCNC1=O` [X D1 B1 a] ([Mpa]K(2Thenoyl(5-Cl))P[dA]-Cysteamide; disulfide 1-C), in assay [2], the “% thrombin activity, Original screen” value came to 96.4% and the “% thrombin activity, Repeat screen” value was determined as 103.7%.
Take `CC(C)C[C@@H]1NC(=O)CCNC(=O)CCSSCCNC(=O)[C@H](CCCNC(=O)c2cnccn2)NC1=O` [B2-L-D2/2]: the “percent residual thrombin activity” value in assay [2] is listed as 112.903%.
Regarding `O=C1CCSSCCNC(=O)[C@@H](CNC(=O)c2ccc(Cl)s2)NC(=O)[C@H]2CCCN(C2)C(=O)[C@H](Cc2c[nH]c3ccccc23)N1` [X W B4 D4], in assay [2], the “% thrombin activity, Original screen” value turned out to be 108.0% and the “% thrombin activity, Repeat screen” value is listed as 112.0%.
For `O=C1CCNC(=O)[C@H](Cc2c[nH]cn2)NC(=O)CCSSCCNC(=O)[C@H](CCCNC(=O)c2ccc(Cl)s2)N1` [H-B2-D2/14], in assay [2], the “percent residual thrombin activity” value is recorded as 94.6113%.
Consider `O=C1CCSSCCNC(=O)C2CCCN2C(=O)C2CC(NC(=O)c3ccc(Cl)s3)CN2C(=O)C(Cc2ccc(O)cc2)N1` (stereo not shown) [X Y D5 B1] ([Mpa]Y[ξPro(4-NHCO(5-Cl-2-thienyl))]P-Cysteamide; disulfide 1-C; configuration not given here), for which, in assay [2], the “% thrombin activity, Original screen” value worked out at 92.3% and the “% thrombin activity, Repeat screen” value came to 97.0%.
In the case of `NC(=O)CC[C@@H]1NC(=O)c2ccc(cc2)CNC(=O)[C@H](CCCNC(=O)c2c[nH]c(=O)[nH]c2=O)NC(=O)CCSSCCNC1=O` [D2-B3-Q/11], the “percent residual thrombin activity” value in assay [2] came out at 114.755%.
For the molecule `CC[C@H](C)[C@@H]1NC(=O)[C@H](CCCCNC(=O)COc2ccccc2)NC(=O)CCSSCCNC(=O)C2(CC2)CNC1=O` [D1-I-B6/13], the “percent residual thrombin activity” value in assay [2] came out at 106.199%.
For the molecule `NC(=O)CCC1NC(=O)C(CCCCNC(=O)c2ccc(Cl)s2)NC(=O)CCSSCCNC(=O)C2CCCN2C1=O` (stereo not shown) [X D1 Q B1] ([Mpa]K(2Thenoyl(5-Cl))QP-Cysteamide; disulfide 1-C; configuration not given here), in assay [2], the “% thrombin activity, Original screen” value amounted to 102.2% and the “% thrombin activity, Repeat screen” value is reported as 105.2%.
For the molecule `NC(=O)CCC1NC(=O)C2CCCN(C2)C(=O)C(CNC(=O)c2ccc(Cl)s2)NC(=O)CCSSCCNC1=O` (stereo not shown) [X D3 B4 Q], in assay [2], the “% thrombin activity, Original screen” value is recorded as 94.4% and the “% thrombin activity, Repeat screen” value came to 90.2%.
In the case of `O=C1CCSSCCNC(=O)[C@H](Cc2c[nH]c3ccccc23)NC(=O)[C@H](CCCNC(=O)COc2ccccc2)NC(=O)C2(CC2)CN1` [B6-D2-W/13], the “percent residual thrombin activity” value in assay [2] stood at 95.6589%.
On the same count and under the same terms, for `NCCCC[C@@H]1NC(=O)[C@@H](Cc2c[nH]c3ccccc23)NC(=O)[C@H]2CCCN(C2)C(=O)CCSSCCNC1=O` [B4-w-D1/-] the value was 108.066%.
Same read-out and setting: for `CC(C)C[C@@H]1NC(=O)[C@H](CCCNC(=O)c2c[nH]c(=O)cn2)NC(=O)C2(CC2)CNC(=O)CCSSCCNC1=O` [B6-D2-L/9] the value was 109.823%.
On to `O=C1CCSSCCNC(=O)[C@H](CCCCNC(=O)c2ccccc2)NC(=O)C2(CC2)CNC(=O)[C@H](Cc2c[nH]c3ccccc23)N1` [W-B6-D1/1], for which, in assay [2], the “percent residual thrombin activity” value was 92.2757%.
Take `O=C1CCSSCCNC(=O)[C@H](CCCCNC(=O)c2c[nH]c(=O)[nH]c2=O)NC(=O)[C@H](Cc2c[nH]cn2)NC(=O)c2ccc(cc2)CN1` [B3-H-D1/11]: in assay [2], the “percent residual thrombin activity” value turned out to be 112.941%.
`CC[C@H](C)[C@@H]1NC(=O)CCNC(=O)[C@H](CCCNC(=O)c2c[nH]c(=O)[nH]c2=O)NC(=O)CCSSCCNC1=O` [D2-B2-I/11]: the “percent residual thrombin activity” value in assay [2] was 113.677%.
As for `Cc1nnsc1C(=O)NCCC[C@@H]1NC(=O)c2ccc(cc2)CNC(=O)[C@H](CO)NC(=O)CCSSCCNC1=O` [S-B3-D2/15], the “percent residual thrombin activity” value in assay [2] came out at 116.562%.
In the case of `O=C1CCNC(=O)[C@H](CO)NC(=O)[C@H](CCCNC(=O)c2cnccn2)NC(=O)CCSSCCN1` [D2-S-B2/2], in assay [2], the “percent residual thrombin activity” value was 115.288%.
On to `CC[C@H](C)[C@@H]1NC(=O)CCSSCCNC(=O)[C@H]2CCCN(C2)C(=O)[C@H](CCCCNC(=O)c2ccc(Cl)s2)NC1=O` [X I D1 B4], for which, in assay [2], the “% thrombin activity, Original screen” value came to 102.2% and the “% thrombin activity, Repeat screen” value was found to be 101.6%.
For `O=C1CCSSCCNC(=O)C2CCCN2C(=O)C2CC(NC(=O)c3ccc(Cl)s3)CN2C(=O)C(Cc2c[nH]c3ccccc23)N1` (stereo not shown) [X W D5 B1] ([Mpa]W[ξPro(4-NHCO(5-Cl-2-thienyl))]P-Cysteamide; disulfide 1-C; configuration not given here), in that order: 113.1% and 119.4%.
Regarding `O=C1CCSSCCNC(=O)[C@H](Cc2ccc(O)cc2)NC(=O)c2cccc(c2)CNC(=O)[C@H](CCCNC(=O)c2ccc(Cl)s2)N1` [D2-B5-Y/14], in assay [2], the “percent residual thrombin activity” value is recorded as 78.2447%.
For `O=C(NCCCC[C@@H]1NC(=O)[C@@H](Cc2c[nH]c3ccccc23)NC(=O)[C@H]2CCCN(C2)C(=O)CCSSCCNC1=O)c1ccccc1` [B4-w-D1/1], the “percent residual thrombin activity” value in assay [2] is reported as 105.33%.
Take `O=C1CCNC(=O)[C@@H](Cc2ccc(O)cc2)NC(=O)[C@H](CNC(=O)c2ccc(Cl)s2)NC(=O)CCSSCCN1` [X D3 y B2]: in assay [2], the “% thrombin activity, Original screen” value amounted to 78.6% and the “% thrombin activity, Repeat screen” value was 75.2%.
With `O=C1CCNC(=O)C2CC(NC(=O)c3ccc(Cl)s3)CN2C(=O)CCSSCCNC(=O)C(CO)N1` (stereo not shown) [X D5 B2 S], in assay [2], the “% thrombin activity, Original screen” value worked out at 115.0% and the “% thrombin activity, Repeat screen” value worked out at 124.0%.
`COc1ccc(C(=O)NCCC[C@@H]2NC(=O)CCSSCCNC(=O)[C@@H](Cc3ccccc3)NC(=O)[C@H]3CCCN(C3)C2=O)cn1` [D2-B4-f/10]: the “percent residual thrombin activity” value in assay [2] came to 107.675%.
